Measurements published in patent US20050192247A1, “Method of treating cancers” (priority 2004, published 2005).
Where a name gives a salt, the structure may show the parent alone.

Tests used:
[1] = test system: CEM T lymphoblastoid cells; details: cited from earlier work
[2] = test system: A549 human lung cancer cells; assay: A549 human lung cancer xenograft mouse model; assay type: in vivo; details: for tumor growth during treatment: eight treatments
Procedure: The anti-tumor activity of β-lapachone is examined using a human lung cancer xenograft model. Briefly, athymic female nude mice (Ncr) are inoculated subcutaneously with 4×10^6 A549 human lung cancer cells, and the tumors are allowed to grow to approximately 50 mm^3 in size. The animals are randomized into five groups of seven animals per group, and treated intraperitoneally every three days with one of the following five regimens: β-lapachone at 40 mg/kg in 40% hydroxypropy-β-cyclodextran (“HPBCD”); β-lapachone at 60 mg/kg in 40% HPBCD; gemcitabine (GEMZAR®) at 120 mg/kg in PBS; β-lapachone (40 mg/kg)+gemcitabine (120 mg/kg); or vehicle control (40% HPBCD). The combination therapy group receives treatments with β-lapachone and gemcitabine at the indicated concentrations on the same day, every three days. Mice receive a total of eight treatments. Mean tumor volume is analyzed; data points in FIG. 2 represent the arithmetic mean+/−SEM of five tumors.

[3] = test system: Human pancreatic cancer Panc-1 cells; assay: Panc-1 human pancreatic cancer xenograft mouse model; assay type: in vivo; details: post-treatment observation 19 days
Procedure: Human pancreatic cancer Panc-1 cells (2×10^6) are implanted subcutaneously into male athymic nude (Ncr) mice. Following establishment of tumor nodules (about 50 mm^3), the animals are randomized into four groups of five animals per group. The animals are treated intraperitoneally with one of four treatments: β-lapachone at 40 mg/kg in 40% hydroxypropy-β-cyclodextran; gemcitabine (Gemzar®) at 120 mg/kg (in PBS); β-lapachone (40 mg/kg)+gemcitabine (120 mg/kg); or vehicle control. The mice receive a total of ten treatments, administered every three days (on study day 5, 8, 11, 14, 17, 20, 31, 34, 37, and 40). The combination therapy group receives β-lapachone and gemcitabine on the same day in each treatment. Following treatment, the animals are observed for an additional 19 days. Tumors are measured throughout the treatment and post-treatment periods.

[4] = in vivo; cited from earlier work
[5] = cited from earlier work
[6] = test system: ovary, colon, and pancreatic cancer cells; details: through induction of caspase; cited from earlier work
[7] = test system: human breast cancer cells; details: cited from earlier work
[8] = test system: human ovarian cancer, human prostate cancer, human breast cancer, human multiple myeloma; details: cited from earlier work

SMILES	internucleosomal DNA fragmentation [1]	tumor growth during treatment ([2]; gemcitabine 120 mg/kg intraperitoneally every three days)	tumor re-growth after termination of treatment ([3]; gemcitabine 120 mg/kg)	tolerability [4]	tumor growth during treatment ([2]; β-lapachone 60 mg/kg intraperitoneally every three days)	retardation of tumor growth, 60 mg/kg compared with 40 mg/kg ([2]; β-lapachone 60 mg/kg versus 40 mg/kg)	water solubility [5]	type of cell death induced [6]	tumor re-growth after termination of treatment ([3]; β-lapachone 40 mg/kg)	type of cell death induced [7]	anti-tumor effect as a single agent [8]
Nc1ccn([C@@H]2O[C@H](CO)[C@@H](O)C2(F)F)c(=O)n1 [gemcitabine, 2′-deoxy-2′,2′-difluorocytidine monohydrochloride (β-isomer), reference compound]	induces internucleosomal DNA fragmentation	retarded tumor growth	400%	–	–	–	–	–	–	–	–
CC1(C)CCC2=C(O1)c1ccccc1C(=O)C2=O [β-lapachone, 3,4-dihydro-2,2-dimethyl-2H-naphtho[1,2-b]pyran-5,6-dione]	–	–	–	generally well-tolerated	retarded tumor growth	more effective at retarding tumor growth	non-water soluble	apoptosis	no significant re-growth	induces necrosis	decrease the number of tumors, reduce tumor size, or increase survival time
